#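 A five-concentration, 48-hour dose response in 96-well plates underlies each endpoint, interpolated linearly between surrounding concentrations. The concentration for 50% growth inhibition is given as GI50.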 Active and inactive are the calls of the source. Rule as the data show it: active = GI50 up to about 1.1 µM and inactive = higher.
# Columns and labels:
# Assay in all cases: NCI anticancer screen, dose series, 48 h
# [1] = system: A549
# [2] = system: OVCAR-4
# [3] = system: HOP-92
# [4] = system: RXF 393
# [5] = system: OVCAR-3
# [6] = system: MDA-MB-231
# [7] = system: UO-31
# [8] = system: K562
# [9] = system: T47D
# [10] = system: NCI-H23
# [11] = system: SF-539
# [12] = system: HOP-62
# [13] = system: SR
# [14] = system: HL-60
# [15] = system: COLO 205
# [16] = system: ACHN
# [17] = system: SK-MEL-28
# [18] = system: SF-268
# [19] = system: CCRF-CEM
Compound,GI50 [1],GI50 [2],GI50 [3],GI50 [4],GI50 [5],GI50 [6],GI50 [7],GI50 [8],GI50 [9],GI50 [10],GI50 [11],GI50 [12],GI50 [13],GI50 [14],GI50 [15],GI50 [16],GI50 [17],GI50 [18],GI50 [19]
O=[N+]([O-])/C=C/c1cc2ccc3ccccc3c2[nH]1,2.16 µM (inactive),1.98 µM (inactive),1.76 µM (inactive),1.43 µM (inactive),1.55 µM (inactive),1.43 µM (inactive),1.56 µM (inactive),1.8 µM (inactive),1.31 µM (inactive),2.02 µM (inactive),1.86 µM (inactive),1.98 µM (inactive),0.555 µM (active),2.12 µM (inactive),1.75 µM (inactive),1.54 µM (inactive),2.01 µM (inactive),1.77 µM (inactive),0.299 µM (active)
COC(=O)CCCC(=O)/C(=N\Nc1ccc(Cl)cc1)Nc1c(Cl)cccc1Cl,24.3 µM (inactive),46.3 µM (inactive),45 µM (inactive),8.69 µM (inactive),55.5 µM (inactive),> 82.8 µM (inactive),34.4 µM (inactive),48.1 µM (inactive),> 46.5 µM (inactive),48.2 µM (inactive),> 100 µM (inactive),> 67.6 µM (inactive),20.5 µM (inactive),7.06 µM (inactive),22.7 µM (inactive),> 87.9 µM (inactive),> 89.3 µM (inactive),> 89.7 µM (inactive),26.2 µM (inactive)
COC(=O)C1=C(C(=O)OC)SC(=C2SCSC3=C2SC(C(=O)OC)=C(C(=O)OC)C32SC3=C(CCCC3)S2)S1,> 100 µM (inactive),> 100 µM (inactive),56.2 µM (inactive),19.4 µM (inactive),> 100 µM (inactive),95.3 µM (inactive),> 100 µM (inactive),> 100 µM (inactive),> 100 µM (inactive),> 100 µM (inactive),44.5 µM (inactive),> 100 µM (inactive),> 100 µM (inactive),> 100 µM (inactive),> 100 µM (inactive),62.2 µM (inactive),> 100 µM (inactive),> 100 µM (inactive),> 100 µM (inactive)
CN(NC(=O)CCCl)C1=NCCN1,> 100 µM (inactive),> 100 µM (inactive),> 100 µM (inactive),> 100 µM (inactive),> 100 µM (inactive),> 100 µM (inactive),> 100 µM (inactive),> 100 µM (inactive),> 100 µM (inactive),> 100 µM (inactive),> 100 µM (inactive),> 100 µM (inactive),> 100 µM (inactive),> 100 µM (inactive),> 100 µM (inactive),> 100 µM (inactive),> 100 µM (inactive),> 100 µM (inactive),> 100 µM (inactive)

# From ChEMBL document CHEMBL1201862, “PubChem BioAssay data set” (2004)
